Legend:
Mus musculus = assay: In vivo inhibition of TPA-induced ornithine decarboxylase (ODC) activity in hairless mouse skin; format: functional
[1] = molecular target: T1, Retinoic acid receptor RXR-alpha (Homo sapiens, UniProt P19793); assay: Transcriptional activation of retinoid X receptor RXR alpha; not active
T1 sequence (P19793 whole entry): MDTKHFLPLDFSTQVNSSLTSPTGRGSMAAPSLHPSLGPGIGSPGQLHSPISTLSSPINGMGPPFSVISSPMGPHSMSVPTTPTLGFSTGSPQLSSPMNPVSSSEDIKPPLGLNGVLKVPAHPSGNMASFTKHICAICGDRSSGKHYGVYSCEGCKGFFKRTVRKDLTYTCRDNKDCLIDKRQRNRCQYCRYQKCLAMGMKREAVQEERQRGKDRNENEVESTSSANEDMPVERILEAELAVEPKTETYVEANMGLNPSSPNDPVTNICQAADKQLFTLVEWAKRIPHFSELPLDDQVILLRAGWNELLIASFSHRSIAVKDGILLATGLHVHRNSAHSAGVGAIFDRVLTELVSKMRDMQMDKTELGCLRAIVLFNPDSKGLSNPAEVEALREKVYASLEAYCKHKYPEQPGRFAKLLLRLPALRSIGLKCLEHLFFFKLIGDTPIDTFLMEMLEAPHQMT

[2] = molecular target: T2, Retinoic acid receptor alpha (Homo sapiens, UniProt P10276); assay: Transcriptional activation of retinoic acid receptor RAR alpha
T2 sequence (P10276 whole entry): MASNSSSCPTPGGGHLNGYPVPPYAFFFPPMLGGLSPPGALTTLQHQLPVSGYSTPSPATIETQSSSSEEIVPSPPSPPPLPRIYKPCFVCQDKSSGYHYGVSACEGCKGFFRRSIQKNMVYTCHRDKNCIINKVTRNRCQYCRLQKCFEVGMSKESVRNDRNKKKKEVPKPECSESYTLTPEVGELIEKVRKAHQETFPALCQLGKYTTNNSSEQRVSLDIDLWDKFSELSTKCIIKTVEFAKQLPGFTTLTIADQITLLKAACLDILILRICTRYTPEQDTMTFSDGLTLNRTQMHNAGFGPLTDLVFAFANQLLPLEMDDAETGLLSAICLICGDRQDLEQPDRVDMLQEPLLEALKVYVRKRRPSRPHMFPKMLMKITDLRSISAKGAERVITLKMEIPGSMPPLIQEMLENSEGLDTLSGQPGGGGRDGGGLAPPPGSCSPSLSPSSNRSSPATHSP

[3] = molecular target: T3, Retinoic acid receptor gamma (Homo sapiens, UniProt P13631); assay: Transcriptional activation of retinoic acid receptor RAR gamma
T3 sequence (P13631 whole entry): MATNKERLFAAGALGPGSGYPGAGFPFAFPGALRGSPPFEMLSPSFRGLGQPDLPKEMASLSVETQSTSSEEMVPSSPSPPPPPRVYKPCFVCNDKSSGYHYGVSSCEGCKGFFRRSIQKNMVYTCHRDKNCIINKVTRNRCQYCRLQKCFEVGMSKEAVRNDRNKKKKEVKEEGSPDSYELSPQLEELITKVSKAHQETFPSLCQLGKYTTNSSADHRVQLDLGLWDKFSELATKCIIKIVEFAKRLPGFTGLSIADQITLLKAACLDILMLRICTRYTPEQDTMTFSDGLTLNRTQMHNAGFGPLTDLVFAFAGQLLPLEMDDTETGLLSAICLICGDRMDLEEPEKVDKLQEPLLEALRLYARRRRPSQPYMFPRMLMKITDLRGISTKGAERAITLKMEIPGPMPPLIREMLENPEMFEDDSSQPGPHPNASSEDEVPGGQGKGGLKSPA

[4] = molecular target: T4, Retinoic acid receptor beta (Homo sapiens, UniProt P10826); assay: (§1) Transcriptional activation of retinoic acid receptor RAR beta
T4 sequence (P10826 whole entry): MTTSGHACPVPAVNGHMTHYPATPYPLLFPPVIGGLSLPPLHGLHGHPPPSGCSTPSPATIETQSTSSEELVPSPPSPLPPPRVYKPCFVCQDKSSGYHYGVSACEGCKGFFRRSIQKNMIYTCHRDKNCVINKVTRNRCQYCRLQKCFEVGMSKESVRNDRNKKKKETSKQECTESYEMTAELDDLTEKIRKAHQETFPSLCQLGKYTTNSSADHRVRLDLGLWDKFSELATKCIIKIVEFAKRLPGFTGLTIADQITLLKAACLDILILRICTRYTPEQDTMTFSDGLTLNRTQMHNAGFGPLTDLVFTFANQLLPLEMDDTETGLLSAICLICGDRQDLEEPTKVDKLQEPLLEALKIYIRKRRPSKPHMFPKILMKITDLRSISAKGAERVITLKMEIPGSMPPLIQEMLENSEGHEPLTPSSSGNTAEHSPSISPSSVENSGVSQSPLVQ

[5] = molecular target: T4, Retinoic acid receptor beta; assay: Transcriptional activation of retinoic acid receptor RAR beta; not active
[6] = molecular target: T3, Retinoic acid receptor gamma; assay: Transcriptional activation of retinoic acid receptor RAR gamma; not active
[7] = molecular target: T2, Retinoic acid receptor alpha; assay: Transcriptional activation of retinoic acid receptor RAR alpha; not active
[8] = molecular target: T4, Retinoic acid receptor beta; assay: as §1; remark: listed apart in the source

EC50 [1] [µM]	EC50 [7] [µM]	SMILES	IC80 (Mus musculus) [nmol]	further results
		CCOC(=O)c1ccccc1C#C/C=C/C1=C(C)CCCC1(C)C	> 1000	
		CCOC(=O)c1ccc(C#C/C=C/C2=C(C)CCCC2(C)C)s1	30	
		CCOC(=O)c1ccc(C#C/C=C/C2=C(C)CCCC2(C)C)nc1	5.3	
		CCOC(=O)c1cccc(C#C/C=C/C2=C(C)CCCC2(C)C)c1	> 1000	
10		CC1=C(/C=C/C#Cc2ccc(C(=O)O)cc2)C(C)(C)CCC1	0.46	EC50 [2]: 0.598 µM; EC50 [3]: 0.01 µM; EC50 [4]: 0.002 µM
> 10	> 10	CC1=C(/C=C/C#Cc2cccc(C(=O)O)c2)C(C)(C)CCC1	890	EC50 [5]: > 10 µM; EC50 [6]: > 10 µM
		CCOC(=O)c1ccc(C#C/C=C/C2=C(C)CCCC2(C)C)cc1	1.3	
	> 10	CC1=C(/C=C/C#Cc2ccc(C(=O)O)cn2)C(C)(C)CCC1	14.8	EC50 [3]: > 0.015 µM; EC50 [4]: > 0.005 µM
		CCOC(=O)c1ccc(C#C/C=C/C2=C(C)CCCC2(C)C)o1	> 300	
> 10	> 10	CC1=C(/C=C/C#Cc2ccccc2C(=O)O)C(C)(C)CCC1	> 1000	EC50 [5]: > 10 µM; EC50 [6]: > 10 µM
> 10	> 10	CC1=C(C#Cc2ccc3cc(C(=O)O)ccc3c2)C(C)(C)CCC1	215	EC50 [8]: 0.93 µM; EC50 [4]: 0.355 µM
		CCOC(=O)c1ccc2cc(C#CC3=C(C)CCCC3(C)C)ccc2c1	131	
10		C/C(=C\c1ccc(C(=O)O)cc1)c1ccc2c(c1)C(C)(C)CCC2(C)C		

From ChEMBL document CHEMBL1128846, “Synthesis and pharmacological activity of conformationally restricted, acetylenic retinoid analogs” (Bioorg Med Chem Lett, 1995)
